Laboratory results as given in patent US4710492A, “3'-azido-2',3'-dideoxy-5-halouridine and its use in treating patients infected with retroviruses” (Yale University, priority 1986, dated 1987).
Read-outs that look alike come from different tables or passages of the source.

Assays:
HTLV III/LAV = settings: in vitro; Mitsuya et al. 1985; cited from earlier work
[1] = test system: Moloney Murine Leukemia Virus; assay: Antiviral screening against Moloney Murine Leukemia Virus (MuLV) by XC-Assay; format: cell-based; settings: read-out: ID50 (Moloney Murine Leukemia Virus)
Text: Biological Activity Assay Procedure for Antiviral Screening Against Moloney Murine Leukemia Virus (MuLV) by XC-Assay
The XC assay system is an indirect method for quantitation of murine-leukemia virus (MuLV) originally described by V. Klement et al, Proc. Natl. Acad. Sci., 63, 753, (1969) and modified by W. Rowe et al, Virology, 42, 1136, (1970). This test is based on the development of syncytial changes in the XC cell line when it is co-cultivated with mouse fibroblast cells (SC-1 cells) productively infected with MuLV. The XC cell line was derived from a rat tumor induced by the prague strain of Rouse Sarcoma Virus (RSV) (J. Svoboda et al, Folia Biol., 9, 77, (1963)).
1E5 SC-1 cells were seeded, in Earls Minimum Essential Medium (EMEM)-10% Fetal Bovine Serum (FBS), onto 60 mm petri dishes. The following day, the cells were inoculated with 0.5 ml of a virus dilution containing 25 μg/ml of DEAE-dextran. The dishes were maintained for 1 hour at 37° C. in a humidified 5% CO2 incubator. The virus inoculum was then removed and replaced with 5 ml of medium containing appropriate concentration of the test compound (two dishes/concentration). Medium containing 5% FBS was added to the virus control dishes. The medium (with or without the test compound) was changed at 48 hours.
Five days after virus inoculation, the culture fluid was decanted and the cells were irradiated with a GE germicidal bulb for 30 seconds (1500-1800 ergs UV-light). Cultures were immediately overlaid with 2E5 XC cells in 5 ml of EMEM-10% FBS/dish. The medium was changed at 2 day intervals. Four days after XC cell addition, cultures were simultaneously fixed and stained with GEIMSA for 10 to 15 minutes.
Plaques were counted using an inverted microscopy as holes in the cell sheet containing syncytial cells, or as focal masses of multinucleated giant cells.
Calculation of % Inhibition/Concentration: [formula] ID50: Accumulative % Inhibition using Reed-Muench Method

HTLV-III/LAV/AAV = assay: Antiviral activity against HTLV-III/LAV/AAV; format: cell-based; settings: Human immunodeficiency virus 1; read-out: ID50 HTLV-III/LAV/AAV
[2] = SC1, XC-assay, SC-1 mouse fibroblast cells co-cultivated with XC cells, Reed-Muench Method

SMILES | HTLV III/LAV replication (HTLV III/LAV) | cytopathic effects of HTLV III/LAV (HTLV III/LAV) | IC50 ([1]; SC1, Fibroblast) [nM] | IC50 (HTLV-III/LAV/AAV) [nM] | IC50 [1, 2] [nM]
Cc1cn([C@H]2C[C@H](N=[N+]=[N-])[C@@H](CO)O2)c(=O)[nH]c1=O [3'-azido-3'-deoxythymidine] | inhibit HTLV III/LAV replication | block the cytopathic effects | 23 | 230 | –
[N-]=[N+]=N[C@H]1C[C@H](n2cc(I)c(=O)[nH]c2=O)O[C@@H]1CO [3'-N3 --IUdR, 3'-azido-2',3'-dideoxy-5-iodouridine] | – | – | – | – | 3000
[N-]=[N+]=N[C@H]1C[C@H](n2cc(Br)c(=O)[nH]c2=O)O[C@@H]1CO [3'-N3 --BUdR, 3'-azido-2',3'-dideoxy-5-bromouridine] | – | – | – | 2300 | 1500
